# Measured values reported in US20240124501A1, “VANADIUM COMPOUNDS AND METHODS OF MAKING AND USING THEREOF” (priority 2022, published 2024).
# Values joined by “and” are separate entries in the source; they are usually repeats but may differ in a detail not shown here. Identical values can stand only once. Like-named read-outs stand apart in the source and are kept apart here.
# Experiments:
# [1] = system: T98 g cells (human glioblastoma multiforme); assay: IC50 for 72 h treatments with fresh vanadium(V) compounds in T98 g cells (Example 7); format: cell-based; settings: 72 h treatment, each measurement reported, read-out: IC50 Value(s) (converted)
# Experimental: (§1) Cell Culture and Growth Conditions. The well-established human glioblastoma multiforme cell line (T98 g) and human foreskin fibroblast (HFF-1) cell lines were purchased from American Type Culture Collection (ATCC, cat. no. CRL-1690 and SCRC-1041). Due to their limited life span in culture, HFF-1 cells were used at passages four to six. The cells were cultured in Advanced DMEM (Thermo Fisher Scientific cat. no. 12491-015), supplemented with L-glutamine (2.0 mM), antibiotic-antimycotic mixture (100 U mL^−1 penicillin, […] streptomycin, and […] amphotericin B), and fetal calf serum (FCS; heat-inactivated; 2% vol). For proliferation and cytotoxicity experiments, cells were seeded in 96-well plates at an initial density of 1.5×10^3 viable cells per well in 100 μL medium and left to attach overnight.
# (§2) Freshly prepared stock solutions of V(V) complexes (10 mM in DMSO) were used for cell assays. […] Stock solutions of the treatment complexes were diluted with fully supplemented cell culture media to the required final concentrations, and the resultant media were either added to the cells within 1 min (fresh solutions) or left in cell culture incubator (310 K, 5% CO2) for 24 h prior to the cell treatments (aged solutions).
# (§3) Each treatment included six replicate wells with cells and two background wells without cells that contained the same components. After the addition of treatment complexes, the plates were incubated for 72 h at 310 K and 5% CO2, then MTT reagent [1-(4,5-dimethylthiazol-2-yl)-3,5-diphenylformazan, Sigma M5655] was added (50 μL per well of freshly prepared 2.0 mg/mL solution in complete medium), and incubation was continued for 4-6 h. After that, the medium was removed, the blue formazan crystals were dissolved in 0.10 mL per well of DMSO, and the absorbance at 600 nm was measured using a Victor V3 plate reader. Typically, the treatment complexes were applied in a series of nine two-fold dilutions, starting from (100±20) M V, plus the vehicle control. Exact V concentrations in the assays were verified by ICP-MS measurements using samples of cell culture media and used in the calculations of the IC50 values. Fitting of the experimental data and calculations of the IC50 values were performed using Origin 6.1 software (Microcal Origin, 1999). For all the cell assays, consistent results were obtained in at least two independent experiments using different passages of cells and varying stock solutions of the treatment complexes.
# In cases where multiple measurements were performed, the value determined for each measurement are reported.
# [2] = system: Mycobacterium smegmatis (M. smeg); assay: Growth inhibition of M. smeg (MIC/IC50 measurement); format: cell-based, Mycobacterium smegmatis mc^2 155; settings: Mycolicibacterium smegmatis; M. smeg in 7H9 media, 24 h at 37° C., OD600; mean and SD of triplicate
# Experimental: Cell Culture and Growth Conditions. M. smeg was cultured in Middlebrook 7H9 medium (Ref. no. 271310; Difco) supplemented with 10% OAD (oleic acid, albumin, dextrose), 0.2% (v/v) glycerol, and […], and incubated with shaking for 24 h at 37° C. M. smeg was grown to a mid-logarithmic growth phase assessed via spectrophotometry and occurred at an optical density of 0.6 at 600 nm (OD600). In some experiments where M. smeg was treated with vanadium complexes, the cell culture supernatant was collected for ^51V NMR studies.
# Minimum Inhibitory Concentration (MIC) Measurements. The inhibitory activity of the tested compounds was determined by measuring the lowest concentration that caused bacterial growth inhibition of 50% (IC50). M. smeg was grown to the mid-log phase of 0.6-0.8 at OD600. The final concentrations of the compounds used in these studies were obtained using serial dilutions to a final concentration range of 2 to 0.0039 mM and placed with M. smeg in 7H9 media into a 96-well plate. Plates were incubated for 24 h at 37° C. A Bio-Rad Benchmark Reader (Bio-Rad Laboratories: Hercules, CA, USA) was used to check the cell viability at OD600 at appropriate times. IC50 was determined to be the lowest concentration of complexes that inhibited M. smeg growth by 50%.
# Statistical Analysis. For each treatment, data were represented as the mean and standard deviation of the IC50 from triplicate measurements. The IC50 was calculated using GraFit 5 data analysis software (version 5.0.13). • Chemistry
# Preparation of Stock Solutions for Cell Culture Experiments. A 20 mM stock solution of each respective V-complex and its free ligands was prepared in DMSO and diluted with 7H9 media to a concentration of 2.0 mM for biological studies.
# [3] = system: HFF-1 (non-cancer human fibroblasts); assay: Anti-proliferative activity, MTT assay, HFF-1 cells (Example 5)
# [4] = system: T98g (human glioblastoma cells); assay: Anti-proliferative activity, MTT assay, T98g cells (Example 5); format: cell-based; settings: read-out: IC50 (T98g), condition (B)
# [5] = system: HFF-1 (human foreskin fibroblasts); assay: Cytotoxicity, MTT assay, HFF-1 cells (Example 4); format: cell-based; settings: 72 h treatment; mixed with medium ~1 min before treatment; read-out: IC50 HFF-1 (fresh)
# Experimental: as §1, with “µL” for “μL”
# Freshly prepared stock solutions of V(V) complexes (10 mM in DMSO) were used for cell assays. […]
# Each treatment included six replicate wells with cells and two background wells without cells that contained the same components. […] After that, the medium was removed, the blue formazan crystals were dissolved in 0.10 mL per well of DMSO, and the absorbance at 600 nm was measured using a Victor V3 plate reader. […]
# T98g cells = assay: V uptake by T98g cells (ICPMS); format: cell-based, human; settings: 30 min treatment with 100 μM of freshly diluted V complexes
# Experimental: For V uptake experiments, T98 g cells were grown to ˜80% confluence in 12-well plates (three replicates per treatment). […] After that, V-containing media were removed, the cell layers were washed twice with phosphate buffered saline (PBS), detached with TrypLE solution (Thermo Fisher Scientific Cat. No. 12605028), pelleted, and washed again with PBS. Detachment and washing of cell pellets were used to remove V that was absorbed on the culture plates and on the cell surface. Cell numbers in each pellet were counted with a Countess automatic counter, typical numbers were (5±1)×10^5 cells/well, cell viability was >95% (Trypan blue staining). Cell pellets were digested with 0.20 mL of 65% HNO3 (trace pure, Merck 225711) for 3 d at 295 K, then diluted with Milli-Q water to 1.0 mL for ICPMS analysis. The analysis was performed with a Perkin-Elmer Nexion 350× spectrometer, using a standard V(IV) solution (Choice Analytical, Australia) and 193Ir peak as an internal standard. The measurements were performed in kinetic energy discrimination (KED) mode to eliminate the interference of [^35Cl^16O]^+ ions with the determination of ^51V^+. Cellular V concentrations were expressed in atoms V per cell. For all the cell assays, consistent results were obtained in at least two independent experiments, using different passages of cells and different stock solutions of the treatment compounds.
# [6] = system: T98g cells (human glioblastoma multiforme); assay: Antiproliferative activity, MTT assay, T98g cells (Example 4); format: cell-based; settings: 72 h treatment
# Experimental: as §1, with “µL” for “μL”
# as §2
# as §3, with “(100±20) μM” for “(100±20) M”
# [7] = complexes mixed with cell culture medium ~1 min (295K) before treatment, read-out: IC50 T98g (fresh)
# [8] = pre-incubated with cell culture medium 24 h at 310K, 5% CO2, read-out: IC50 T98g (aged)
Compound,IC50 [1],IC50 [2],also measured
CCOc1cccc2c1[O][V]1(=[O])([O]c3cc(C(C)(C)C)cc(C(C)(C)C)c3[O]1)[N](CCO)CCN=C2,2.4 ± 0.3 µM,–,–
CCOc1cccc2c1[O][V]1(=[O])([O]c3cc(C45CC6CC(CC(C6)C4)C5)cc(C(C)(C)C)c3[O]1)[N](CCO)CCN=C2,2.1 ± 0.3 µM,–,–
CCOc1cccc2c1[O][V]1(=[O])([O]c3cc(C45CC6CC(CC(C6)C4)C5)cc(C45CC6CC(CC(C6)C4)C5)c3[O]1)[N](CCO)CCN=C2,3.3 ± 0.4 µM,–,–
CCOc1cccc2c1[O][V]1(=[O])([O]c3cc(C45CC6CC(CC(C6)C4)C5)cc(C)c3[O]1)[N](CCO)CCN=C2,14 ± 2 µM,–,–
CC(C)(C)c1cc2c(c(C34CC5CC(CC(C5)C3)C4)c1)[O][V]1(=[O])([O]c3ccccc3C=NCC[N]1CCO)[O]2,9.3 ± 2.1 µM,–,–
CC(C)(C)c1cc2c(c(C34CC5CC(CC(C5)C3)C4)c1)[O][V]1(=[O])([O]c3ccc(Cl)cc3C=NCC[N]1CCO)[O]2,3.4 ± 0.2 µM,–,–
[O]=[V]12([O]c3ccc(Cl)cc3C=NCC[N]1CCO)[O]c1cc(C34CC5CC(CC(C5)C3)C4)cc(C34CC5CC(CC(C5)C3)C4)c1[O]2,11 ± 1 µM,–,–
CC(C)(C)c1cccc2c1[O][V]1(=[O])([O]c3cc(C45CC6CC(CC(C6)C4)C5)cc(C45CC6CC(CC(C6)C4)C5)c3[O]1)[N](CCO)CCN=C2,5.3 ± 1.6 µM,–,–
CC(C)(C)c1cc2c(c(C(C)(C)C)c1)[O][V]1(=[O])([O]c3cc4ccc(=O)oc4cc3[O]1)[N](CCO)CCN=C2,4.2 µM and 6.9 µM,–,–
"N#Cc1ccc(O)c(O)c1 [H2CN, 3,4-dihydroxybenzonitrile]",–,447 ± 0.04 µM,–
"O=c1ccc2cc(O)c(O)cc2o1 [H2Coum, 6,7-dihydroxycoumarin]",–,506 ± 0.28 µM,–
"Oc1ccccc1O [H2cat, catechol]",–,109 ± 0.05 µM,–
"CC(C)(C)c1cc(O)c(O)c(C(C)(C)C)c1 [H2dtb, 3,5-di-tert-butylcatechol]",–,241 ± 0.07 µM,"IC50 ([3]; Homo sapiens, HFF-1, read-out: IC50 (HFF-1), condition (B)): 24 ± 2 µM; IC50 [4]: 15 ± 3 µM"
"Oc1c(O)c(Br)c(Br)c(Br)c1Br [H2tbc, tetrabromocatechol]",–,416 ± 0.19 µM,–
"COc1cccc(O)c1O [H23OMet, 3-methoxy catechol]",–,262 ± 0.15 µM,–
"O=[N+]([O-])c1ccc(O)c(O)c1 [H24NO2, 4-nitrocatechol]",–,610 ± 0.05 µM,–
[Na+].[Na+].[Na+].[O]=[V]([O-])([O-])[O-] [Na3VO4],–,–,"IC50 [5]: 23 ± 3 µM; viability of HFF-1 cells compared with the vehicle control ([3]; subtoxic concentrations, not seen in T98g): 120-140%; Uptake (T98g) of V (T98g cells): (3.3 ± 0.8) × 10^7 atoms per cell; IC50 [6, 7]: ~40 µM and 26 µM; IC50 [6, 8]: 24 ± 4 µM"
N.N.[Cl][Pt][Cl] [cisplatin],–,–,"IC50 [5]: 45 ± 4 µM; IC50 [6, 7]: 33 ± 1 µM; IC50 [6, 8]: > 50 µM"
